Laboratory results taken from patent US9943509B2, “Methods, compounds, and compositions for the treatment of musculoskeletal diseases” (UNIVERSITY OF SOUTHERN CALIFORNIA, priority 2013, dated 2018).
“Also recorded” adds a separate entry of the source.

How the values were obtained:
Dmd^mdx mice [1] = assay: Inverted grid test of grip strength (hang time) in treadmill-exercised mice; type: in vivo, mouse
Procedure: (§1) FIG. 1: Inverted Grid Test: Mouse hang times were recorded on an inverted grid test of grip strength following 8 weeks of treadmill exercise (12-15 m/min 3 times per week) and treatment. Six different subcutaneously delivered treatment groups (n=6/group) were evaluated—wild-type (WT) C57BL/10SnJ control mice plus five groups of Dmd^mdx (C57BL/10ScSn-Dmd^mdx/J) mice: vehicle (saline/Tween 20), A(1-7) 0.5 mg/kg/day, and Compound 7 at three doses (0.5, 1.0, and 2.0 mg/kg/day).
(§2) Effect of administration of a non-peptidic small molecule Mas agonist (“Mas agonist”), Compound 7, once daily by subcutaneous injection for 10 weeks in comparison with Angiotensin (1-7), a peptide shown in the literature to improve outcomes in mdx mice.
(§3) Test Articles: (1) Compound 7 in Tween in saline (0.5, 1 or 2 mg/kg/day); (2) A(1-7) in saline (0.5 mg/kg/day)
Methods: 10 weeks old male Dmd^mdx mice were exercised at 12-15 m/min for 30 min 3 times a week for 10 weeks. The absence of dystrophin in Dmd^mdx mice produces a vastly different phenotype than dystrophin deficiency in humans does [De Luca et al., 2003]. […] In this study, 10 weeks of exercise during treatment was used. There were six different treatment groups—Wild Type plus five groups of Dmd^mdx mice: Vehicle, Compound 7 0.5 mg/kg/day, Compound 7 1 mg/kg/day, Compound 7 2.0 mg/kg/day, and 0.5 mg/kg/day Angiotensin (1-7). […]

Dmd^mdx mice [2] = assay: Weights test of forelegs grip strength (grip score); type: in vivo, mouse
Procedure: as §1, with “2: Performance” for “1: Inverted Grid Test: Mouse hang times were recorded”, “the weights” for “an inverted grid”, “test and calculation” for “test”, “grip score [Deacon, 2013] allowed a measure of forepaw grip” for “grip”, “strength was recorded” for “strength”, “9” for “8”
as §2, §3
Methods: 10 weeks old male Dmd^mdx mice were exercised at 12-15 m/min for 30 min 3 times a week for 10 weeks. […]
If the mouse is unsuccessful at lifting a particular weight for 3 seconds in all 3 attempts then the weight lower than the current weight was recorded as the last successful weight lifted by the mouse. The number of seconds (0 or 1 or 2) was recorded for the highest weight the mouse can lift. […]

Dmd^mdx mice [3] = assay: Bone marrow mesenchymal stem cell (MSC) counts by CFU-F assay after treatment; type: in vivo, mouse; conditions: subcutaneous, Compound 7 0.5, 1.0 and 2.0 mg/kg/day, A(1-7) 0.5 mg/kg, 9 weeks, femur marrow cultured 8 days, vs vehicle
Procedure: (§4) FIG. 3: Six different subcutaneously delivered treatment groups (n=6/group) were evaluated—wild-type (WT) C57BL/10SnJ control mice plus five groups of Dmd^mdx (C57BL/10ScSn-Dmd^mdx/J) mice: vehicle (saline/Tween 20), A(1-7) 0.5 mg/kg/day, and Compound 7 at three doses (0.5, 1.0, and 2.0 mg/kg/day). At necropsy, following 9 weeks of treadmill exercise (12-15 m/min 3 times per week) and treatment, bone marrow was collected from both femurs, cultured 8 days, and mesenchymal stem cell (MSC) counts were recorded.
(§5) Methods: 10 weeks old male Dmd^mdx mice were exercised at 12-15 m/min for 30 min 3 times a week for 10 weeks. The absence of dystrophin in Dmd^mdx mice produces a vastly different phenotype than dystrophin deficiency in humans does [De Luca et al., 2003]. […] In this study, 10 weeks of exercise during treatment was used. There were six different treatment groups—Wild Type plus five groups of Dmd^mdx mice: Vehicle, Compound 7 0.5 mg/kg/day, Compound 7 1 mg/kg/day, Compound 7 2.0 mg/kg/day, and 0.5 mg/kg/day Angiotensin (1-7).
Necropsy: At the conclusion of the 9-week observation period (19 weeks of age), all animals were euthanized, and tissue samples and bone marrow (below) were collected. The tissues collected were the diaphragm, gastrocnemius muscle, soleus muscle, tibialis anterior muscle, plantaris muscle and heart. […]

Dmd^mdx mice [4] = assay: Histological evaluation of H&E stained diaphragm; type: in vivo, mouse; conditions: subcutaneous, Compound 7 0.5, 1.0, 2.0 mg/kg/day, A(1-7) 0.5 mg/kg/day, 9 weeks, 5 random 40× fields, vs saline
Procedure: as §4, with “4: Histological evaluation:” for “3:”, “diaphragms were collected, fixed for 2 days in foramalin, paraffin embedded, sectioned,” for “bone marrow was collected from both femurs, cultured 8 days,”, “H&E stained.” for “mesenchymal stem cell (MSC) counts were recorded.”
FIG. 5: Histological evaluation: H&E stained diaphragm section, prepared as described in FIG. 4, were analyzed by for degenerating and regenerating fibers as well as inflammation. For each animal (n=6 per treatment group) 5 random 40× fields were taken across the diaphragm section and analyzed. (A) Degenerating fibers were counted as deadened fibers co-localized with an open space. […] Compound 7 across the dosage was similar to Dmd^mdx mice treated with A(1-7). (B) The number of regenerating fibers per field were counted as healthy fibers appearing with basophilic staining. […] (C) Inflammation was quantified as loci of 10 or more inflammatory cells.
as §5
Necropsy: At the conclusion of the 9-week observation period (19 weeks of age), all animals were euthanized, and tissue samples and bone marrow (below) were collected. The tissues collected were the diaphragm, gastrocnemius muscle, soleus muscle, tibialis anterior muscle, plantaris muscle and heart. The gastrocnemius muscle, soleus muscle, tibialis anterior muscle, plantaris muscle from the left leg as well as the diaphragm and heart were fixed in formalin and stored in 70% EtOH for hematoxylin and eosin (H&E) staining.
Histological Evaluation of the Diaphragm: The diaphragm was embedded in paraffin, sectioned and stained by H & E (hematoxylin and eosin). The parameters were assessed include (1) the number of regenerating fibers as defined by basophilic fibers; (2) number of degenerating fibers and the number of inflammatory loci (clusters of 10 or more inflammatory cells). Five random 40× fields per diaphragm were evaluated.

[5] = test system: Dmd^mdx and Sgcd−/− mouse models of muscular dystrophy; conditions: Dmd^mdx and Sgcd−/− mice; Acuña et al., 2014; Sabharwal et al., 2012; cited from earlier work
[6] = test system: mice chronically infused with AngII; conditions: AngII/A(1-7) co-treatment vs AngII infusion alone; Cisternas et al., 2015; cited from earlier work
[7] = test system: cardiac fibrogenesis and remodeling; conditions: Iwata et al., 2005; Grobe et al., 2007; cited from earlier work

| Molecule | muscle strength by the inverted grid test (Dmd^mdx mice [1]; once daily subcutaneous, treadmill exercise, summary of FIG. 1) | hang time on the inverted grid test (Dmd^mdx mice [1]; subcutaneous 2.0 mg/kg/day, 8 weeks of treadmill exercise and treatment, vs vehicle treated Dmd^mdx, n=6/group, t-test) | weights test of grip strength, comparison with A(1-7) (Dmd^mdx mice [2]; Compound 7 0.5, 1 or 2 mg/kg/day vs A(1-7) 0.5 mg/kg/day) | muscle strength by the weights test of grip strength (Dmd^mdx mice [2]; once daily subcutaneous, treadmill exercise, summary of FIG. 2) | bone marrow MSC counts (Dmd^mdx mice [3]) | inflammation: loci of 10 or more inflammatory cells in diaphragm (Dmd^mdx mice [4]) | number of degenerating fibers in diaphragm (Dmd^mdx mice [4]) | number of regenerating (basophilic) fibers per field in diaphragm (Dmd^mdx mice [4]) | fibrosis [5] | measures of muscle strength [5] | oxidative stress [5] | gastrocnemius muscle fiber diameter [6] | performance on the weights test [6] | cardiac fibrogenesis and remodeling (interstitial myocardial fibrosis, myocyte hypertrophy) [7] |
| --- | --- | --- | --- | --- | --- | --- | --- | --- | --- | --- | --- | --- | --- | --- |
| CCCCOC(=O)NS(=O)(=O)c1ccc(OC(F)(F)F)cc1-c1ccc(Cn2ccnc2)cn1 [Compound 7, butyl ((2-(5-((1H-imidazol-1-yl)methyl)pyridin-2-yl)-4-(trifluoromethoxy)phenyl)sulfonyl)carbamate] | increased muscle strength | increase in hang time | superior to A(1-7) | increased muscle strength | increased bone marrow MSC counts | significantly increased number of regenerating fibers | reduction in the number of degenerative fibers; also recorded: reduce degenerating fibers | significantly increased number of regenerating fibers | – | – | – | – | – | – |
| Asp-Arg-Val-Tyr-Ile-His-Pro (DRVYIHP; printed: Asp-Arg-Val-Tyr-Ile-His-Pro) [A(1-7), endogenous Mas receptor heptapeptide ligand, purchased from BACHEM] | – | – | – | – | increased bone marrow MSC counts | – | reduction in the number of degenerative fibers | – | reduced fibrosis | improved measures of muscle strength | reduced | prevented a decrease in gastrocnemius muscle fiber diameter | increased | block cardiac fibrogenesis and remodeling |
